One data set deals with OVCAR-8. The conditions noted are these: OVCAR-8, Ovarian, cited from earlier work.
Data set [1] can be described thus: Nonenzymatic reactivity of the 8,9-double bond with GSH (absorbance 330 nm). It is filed as physicochemical. The conditions noted are these: 3.25 mM GSH, pH 7.4, 1 h, 30° C. From the text: Reaction of the 8,9-double bond with GSH was followed spectrophotometrically at 330 nm.
The sulfhydryl group of GSH is a potent nucleophile that rapidly reacts with most electrophilic α,β-unsaturated carbonyl groups via a Michael-addition mechanism.

A further data set has as its system IGROVI. The conditions noted are these: cited from earlier work.

On to `CC1=C(CO)C2=C(C)C3(CC3)[C@@](C)(O)C(=O)C2=C1` [Irofulven, 6-hydroxymethylacylfulvene], for which, in the data set with OVCAR-8, the GI50 is 0.2 µM, the TGI is 6.31E−07, the “log(GI50)” value is listed as −6.7 and the “log(LC50)” value was −5. The “log(TGI)” value in the data set with OVCAR-8 is on record as −6.2. In addition, the CC50 in the data set with OVCAR-8 (read-out: LC50) is 10 µM. Further, the “reactivity of the α,β-unsaturated ketone with GSH” value in data set [1] is “relatively resistant to nucleophilic attack”. Besides, in the data set with IGROVI (Ovarian), the concentration for 50% growth inhibition (GI50) was 0.158 µM, the TGI is 5.01E−07, the “log(GI50)” value is on record as −6.8 and the “log(LC50)” value is on record as −5.2. For the same molecule, in the data set with IGROVI (Ovarian), the “log(TGI)” value is reported as −6.3. The CC50 in the data set with IGROVI (read-out: LC50, Ovarian) was 6.31 µM.

Source of the values: patent publication US7718385B2, “Bioactivation of alkylating agents for cancer treatment” (priority 2003, dated 2010).
